From patent US20260284095A1 (Mayo Foundation for Medical Education and Research, priority 2023, published 2026)

Legend:
[1] = tested on: GMR>Tau Drosophila (tau-mediated eye degeneration); test: Dasatinib in Drosophila tau eye degeneration model; format: in vivo, Drosophila melanogaster; conditions: fly food with dasatinib 1 μM or 10 μM vs DMSO 0.5%; flies aged 5 days; blinded eye score
DDR2 = test: ASO screen in H4 neuroglioma cells, DDR2 knock-down; format: cell-based; conditions: ASO 10 nM and 100 nM in the screen
Procedure: (§1) Expression levels of DDR2, KANK2, and STOM were confirmed to have similar expression levels in the H4 neuroglioma cells (ATCC cat #HTB-148) and PSP brain homogenate (FIG. 27), and then ASOs described in Example 3 were screened for various characteristics in H4 cells. cDNA reverse transcription kits High-Capacity cDNA Reverse Transcription Kit (High-cap, Thermo Fisher Scientific, cat #4368814) and SuperScript™ IV VILO™ (VILO, Thermo Fisher Scientific, cat #11756050) were assessed. Both cDNA synthesis kits tested quantitatively reverse transcribed RNA into cDNA (FIG. 28). qPCR master mixes TaqMan™ Fast Advanced (Fast Advance, Thermo Fisher Scientific, cat #4444556) and TaqMan™ Universal PCR Master Mix (Universal, Thermo Fisher Scientific, cat #4364340) were assessed. Both qPCR master mixes quantitatively amplified cDNA and generated detectable signals (FIG. 29). Multiplexed qPCR assays were also performed. Duplexed gene quantification yielded similar results as singleton qPCR setups (FIG. 30). ASOs targeting PPIB were used as a positive control to confirm delivery of the ASOs to H4 cells and establish ASO screening parameters (FIG. 31).
(§2) ASOs described in Example 3 were screened in the H4 neuroglioma cells. Different concentrations of ASOs (10 nM and 100 nM) were administered and knock-down efficiency (measured by fold change of mRNA compared to non-targeting ASO treated controls) and ASO toxicity (measured by LDH assay) were determined (FIGS. 32A-32F).
(§3) Three ASO hits were selected for each target (DDR2: D4, D5, D9; KANK2: K4, K5, K10; STOM: S1, S4, S10). The knock-down efficiency (mRNA change) and ASO safety (cell toxicity as measured by LDH assay and viability as measured by XTT assay) were repeated/performed to validate the hits, as shown in FIG. 33A-33C.
(§4) Knock-down was assessed by measuring polypeptide levels (FIGS. 35, 40, 41) using western Blot.

DDR2 mRNA [2] = test: ASO D5 target engagement in iPSC-derived neurons; format: cell-based
Procedure: (§5) Induced pluripotent stem cells (iPSCs) were examined as a model to assess target engagement of the ASO D5 (targeting DDR2). […] ASO D5 was administered to iPSCs-derived astrocytes and neurons separately following the schematic depicted in FIGS. 38-39.

DDR2 mRNA [3] = test: ASO D5 target engagement in iPSC-derived astrocytes; format: cell-based
Procedure: as §5

KANK2 = test: ASO screen in H4 neuroglioma cells, KANK2 knock-down; format: cell-based; conditions: ASO 10 nM and 100 nM in the screen
Procedure: as §1, §2, §3, §4

STOM = test: ASO screen in H4 neuroglioma cells, STOM knock-down; format: cell-based; conditions: ASO 10 nM and 100 nM in the screen
Procedure: as §1, §2, §3, §4

Row | Compound | knock-down efficiency of DDR2 (fold change of mRNA compared to non-targeting ASO; polypeptide by western blot) (DDR2) | knock-down efficiency of KANK2 (fold change of mRNA compared to non-targeting ASO; polypeptide by western blot) (KANK2) | knock-down efficiency of STOM (fold change of mRNA compared to non-targeting ASO; polypeptide by western blot) (STOM) | also measured
1 | Cc1nc(Nc2ncc(C(=O)Nc3c(C)cccc3Cl)s2)cc(N2CCN(CCO)CC2)n1 [dasatinib] | – | – | – | tau-mediated eye degeneration [1]: dosage-dependent reduction
2 | D4: ASO targeting DDR2, ACAGAGTCAGGACAAATGGC, 2'-MOE wings, phosphorothioate bonds (all phosphorothioate, sugars by position and methylation of C not given here; 2'-MOE wings) | hits | – | – | –
3 | D5: ASO targeting DDR2, CACTCTTGCAGCAGACATTC, 2'-MOE wings, phosphorothioate bonds (all phosphorothioate, sugars by position and methylation of C not given here; 2'-MOE wings) | hits | – | – | DDR2 mRNA (DDR2 mRNA [2]): reduced DDR2 mRNA; DDR2 mRNA (DDR2 mRNA [3]): reduced DDR2 mRNA
4 | D9: ASO targeting DDR2, CTGCTCATTCCAAAGTCAGC, 2'-MOE wings, phosphorothioate bonds (all phosphorothioate, sugars by position and methylation of C not given here; 2'-MOE wings) | hits | – | – | –
5 | K4: ASO targeting KANK2, GCAAGCCAGTCTACATCAAG, 2'-MOE wings, phosphorothioate bonds (all phosphorothioate, sugars by position and methylation of C not given here; 2'-MOE wings) | – | hits | – | –
6 | K5: ASO targeting KANK2, CCCTCAGACACCCACAATTA, 2'-MOE wings, phosphorothioate bonds (all phosphorothioate, sugars by position and methylation of C not given here; 2'-MOE wings) | – | hits | – | –
7 | K10: ASO targeting KANK2, CGTCCTGTCTTGCTTTGTCT, 2'-MOE wings, phosphorothioate bonds (all phosphorothioate, sugars by position and methylation of C not given here; 2'-MOE wings) | – | hits | – | –
8 | S1: ASO targeting STOM, GGACTACGAATTCACAAGGC, 2'-MOE wings, phosphorothioate bonds (all phosphorothioate, sugars by position and methylation of C not given here; 2'-MOE wings) | – | – | hits | –
9 | S4: ASO targeting STOM, GCAATGGTGGTCAGTGTCTG, 2'-MOE wings, phosphorothioate bonds (all phosphorothioate, sugars by position and methylation of C not given here; 2'-MOE wings) | – | – | hits | –
10 | S10: ASO targeting STOM, ACACGCTCCACCTTTATTCC, 2'-MOE wings, phosphorothioate bonds (all phosphorothioate, sugars by position and methylation of C not given here; 2'-MOE wings) | – | – | hits | –
